The nature of assay [1]: Benzoic acid hydroxylation assay. To be noted: benzoic acid 1 mM, H2O2 6 mM, FeCl3 30 μM, chelator 30 μM, pH 7.4, up to 81 h. From the text: Benzoic acid is a hydroxyl radical scavenger and reacts with hydroxyl radical to give 2-hydroxy, 3-hydroxy and 4-hydroxybenzoic acids. The benzoic acid hydroxylation assay is a chemical assay designed to detect damage caused by hydroxyl radical (Dean and Nicholson, Free Radical Research 1994, vol 20, 83-101). For example, deferiprone suppresses the formation of hydroxybenzoic acids in the presence of iron salts and hydrogen peroxide, while EDTA and iron salts allow such hydroxylation reactions to take place.
This screening assay involves the use of iron salt, benzoic acid, hydrogen peroxide and the chelator and measures the ability of the chelator to inhibit the formation of hydroxybenzoate as an indicator to prevent hydroxyl radical formation in living system.
Briefly, this procedure is based on the ability of hydroxyl radicals to hydroxylate benzoate to give 2-, 3- and 4-hydroxylated benzoic acid products. Benzoic acid (1 mM) is incubated over time up to 81 h at room temperature in the dark in 10 mM phosphate buffer (pH 7.4) with 6 mM hydrogen peroxide, ferric chloride (30 μM) and the Fe chelator (30 μM). HPLC is the method of choice used to monitor and quantify the amount of 2-, 3- and 4-hydroxylated products formed over time in the reaction mixture, and can be verified against authentic benzoic acid and its hydroxylated products via their respective retention times and areas under curve. In addition, several controls are used: (i) a control without added Fe stock solution and Fe chelator; (ii) a control without added Fe chelator; (iii) EDTA as positive control; and (iv) deferiprone as negative control. The Fe-EDTA system is a hydroxyl radical generator and is known to promote hydroxylation of benzoic acid.

Assay [2] concerns SV-NRA cells. In words: MPP+ treated SV-NRA cell viability (MTT). The class given is cell-based. As to conditions: 5 mM MPP+ treated SV-NRA cells, 20 μM, 24 h, p<0.05. On the procedure: SV-NRAs cells were plated in a 96-well plate at a density of 10,000 cells/well in 100 μL of DME […], high glucose 1× liquid (Sigma) supplemented with 10% heat-inactivated FBS and 1× antibiotic/antimycotic solution (Sigma). On the next day, the cells were washed with EMEM media (Eagle's minimal essential media; phenol red, serum and glutamine free) and treated for 24 h with 5 mM MPP^+ (1-methyl-4-phenylpyridinium) in EMEM media in the presence or absence of a tested iron chelating compound. All compounds were tested at the following concentrations: 10 μM, 20 μM, and 40 μM. After 24 h of incubation, cell viability was determined with MTT ((3-(4,5-Dimethylthiazol-2-yl)-2,5-diphenyltetrazolium bromide, a yellow tetrazole) assay which measures mitochondrial activity (Carmichael et al. Cancer Research 1987, 47, 936-942). MTT solution (10 μL, 5 mg/mL) was added to the wells and incubated for 2 h. Formazan product was solubilized with 100 μL of 10% SDS (sodium dodecyl sulphate) in 0.01M HCl. Optical density was determined at 570 nm using Multiscan Ascent plate reader (Labsystems) and data collected were corrected for background signal measured at 650 nm. All data are expressed as % of control.
Co-treatment with iron chelators protected the cells from MPP^+ toxicity.

For the molecule `CN(C)C(c1c(O)c(=O)ccn1C)C(F)(F)F` (centres unmarked) [Apo7041, 2-[1-(dimethylamino)-2,2,2-trifluoroethyl]-3-hydroxy-1-methylpyridin-4(1H)-one], the “hydroxylation of benzoic acid by Fe chelate” value in assay [1] is recorded as “do not promote the hydroxylation of benzoic acid”.
In the case of `Cc1c(O)c(=O)ccn1C` [Deferiprone, 3-hydroxy-1,2-dimethylpyridin-4(1H)-one, reference compound], the “increase in cell viability” value in assay [2] is “about 20%”.
